For 21 compounds, IC50 results are on record in patent publication US20150175599A1, “FAAH Inhibitors” (Ironwood Pharmaceuticals, Inc., priority 2010, published 2015).

This assay has as its target T1, FAAH (Rattus norvegicus, UniProt P97612).
T1 construct: For the assay of FAAH activity in rat brain membrane (RBM) homogenates; tissue Charles River (animals); host or cells: rat whole brain, membrane fraction
T1 sequence (P97612 1-579): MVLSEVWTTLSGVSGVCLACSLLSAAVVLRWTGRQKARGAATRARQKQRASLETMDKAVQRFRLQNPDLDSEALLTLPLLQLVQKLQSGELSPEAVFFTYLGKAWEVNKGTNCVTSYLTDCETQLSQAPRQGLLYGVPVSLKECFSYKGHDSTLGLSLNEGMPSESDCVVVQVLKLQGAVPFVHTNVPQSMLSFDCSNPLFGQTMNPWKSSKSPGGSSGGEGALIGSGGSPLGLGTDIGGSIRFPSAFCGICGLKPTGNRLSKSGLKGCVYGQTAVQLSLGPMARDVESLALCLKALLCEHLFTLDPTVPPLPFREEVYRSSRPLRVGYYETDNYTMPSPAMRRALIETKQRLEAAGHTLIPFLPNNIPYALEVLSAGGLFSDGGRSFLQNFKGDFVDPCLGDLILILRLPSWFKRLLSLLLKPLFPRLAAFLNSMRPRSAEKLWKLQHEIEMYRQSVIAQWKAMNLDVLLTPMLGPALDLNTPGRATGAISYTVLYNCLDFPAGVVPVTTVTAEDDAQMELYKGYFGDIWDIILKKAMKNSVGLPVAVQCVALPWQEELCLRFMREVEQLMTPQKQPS
The assay is described as follows: FAAH inhibition, rat brain membrane homogenate assay. It counts as biochemical. As to conditions: rat brain homogenate; average activity; read-out: Rat Brain Extract FAAH IC50. The protocol: Adult rats (Charles River CD strain, female, 200 g) were anaesthetized with isofluorane and rapidly decapitated. Each brain was quickly removed and chilled in tubes (3 brains per tube) on ice. About 25 mL of “homogenization buffer” (20 mM HEPES buffer, pH 7.0, with 1 mM MgCl2) was added to 15 to 20 g of brain. The brains were homogenized on ice for 1 minute using an Omni GLH homogenizer (Omni International, Marietta, Ga.). The homogenates were then transferred to three centrifuge tubes and centrifuged at 36,500 g for 20 minutes at 4° C. The supernatant was discarded and each pellet was re-suspended in 25 mL homogenization buffer. The re-suspended material was again centrifuged (36,500 g, 20 minutes at 4° C.). Pellets were combined by re-suspension in 10 mL of homogenization buffer and incubated in a 37° C. water bath for 15 minutes. The tubes were then placed on ice for 5 minutes followed by centrifugation at 36,500 g for 20 minutes at 4° C. The supernatant was discarded and the membrane pellets were then re-suspended in 40 mL of “re-suspension buffer” (50 mM Tris-HCl buffer, pH 7.4, containing 1 mM EDTA and 3 mM MgCl2). A Bradford Protein assay was performed to determine protein concentration. The protein was aliquotted into screw cap Cryo tubes each containing −400 μL, flash-frozen in liquid nitrogen and stored at −80° C. until used for the assay. A similar protocol was used to obtain brain membrane homogenates from mice
FAAH activity was assayed in the respective homogenates described herein (Rat brain, Mouse brain or Human brain) with certain of the exemplary compounds described above using a modification of the method of Omeir et al. (1995 Life Sci. 56:1999) and Fowler et al. (1997 J. Pharmacol. Exp. Ther. 283:729). For the assay of FAAH activity in rat brain membrane (RBM) homogenates, RBM homogenates (7 μg protein in 20 μL final volume of 10 mM Tris pH 6.5) were mixed with 180 μL of a mixture of the following: […] unlabelled anandamide (AEA), 0.03 Ci radio labeled anandamide [ethanolamine 1-^3H](40-60 Ci/mmol; product number ART-626, American Radiolabelled Chemicals, St. Louis, Mo.), 1 mg/mL Bovine Serum Albumin (fatty acid-free BSA, electrophoresis grade, Sigma, St. Louis, Mo.), 10 mM Tris-HCl (pH 6.5), and 1 mM EDTA in the presence and absence of test compounds (vehicle was DMSO at a final concentration of 1%) and incubated for 10 minutes at 37° C. Samples were placed on ice to terminate the reactions.
The ^3H-ethanolamine product and un-reacted ^3H-anandamide substrate were then separated by either: (1) using chloroform/methanol extraction or (2) passing the reaction mixture through a glass fiber filter containing activated charcoal. Samples were extracted with chloroform/methanol by adding 0.4 mL of chloroform/methanol (1:1 v/v), vigorously mixing the samples, and separating the aqueous and organic phases by centrifugation. Radioactivity (corresponding to FAAH-catalyzed breakdown of ^3H-anandamide) found in aliquots (0.2 mL) of the aqueous phase was determined by liquid scintillation counting with quench correction. IC50 values were determined as described by Jonsson et al. (2001 Br. J Pharmacol. 133:1263). Alternatively, reactions were purified using a modification of the solid-phase extraction method described by Wilson et al (2003 Anal. Biochem. 318: 270). This method was modified as follows: after reactions were incubated at 37° C. for 10 minutes and chilled on ice, the reaction mixtures were acidified by adding 10 μL of sodium phosphate solution[0.5M (pH 2.0)]. Next, 90 μL aliquots of the acidified reaction mixtures were applied to activated charcoal (that had been previously washed with methanol as described by Wilson et al. (supra)) containing 80 μL of water on top of a glass fiber filter, centrifuged, and the radioactivity in the eluate was counted as described previously by Wilson et al. (supra). […]
A word on the IC50: it is the concentration needed to halve the response being measured. For the compound `COc1cc(NC(=O)C(=O)c2c(C)n(Cc3ccc(Cl)cc3)c3ccc(OC(C)=O)cc23)ccn1` [Compound 1, 1-(4-chlorobenzyl)-3-(2-(2-methoxypyridin-4-ylamino)-2-oxoacetyl)-2-methyl-1H-indol-5-yl acetate], the IC50 was under 100 nM. As for `COc1cc(NC(=O)C(=O)c2c(C)n(Cc3ccc(Cl)cc3)c3ccc(O)cc23)ccn1` [Compound 2, 2-(1-(4-chlorobenzyl)-5-hydroxy-2-methyl-1H-indol-3-yl)-N-(2-methoxypyridin-4-yl)-2-oxoacetamide], the IC50 was under 100 nM. The figure for `COc1cc(NC(=O)C(=O)c2c(C)n(Cc3ccc(Cl)cc3)c3ccc(C(C)=O)cc23)ccn1` [Compound 5, 2-(5-acetyl-1-(4-chlorobenzyl)-2-methyl-1H-indol-3-yl)-N-(2-methoxypyridin-4-yl)-2-oxoacetamide] is under 100 nM; for `COc1cc(NC(=O)C(=O)c2c(C)n(Cc3ccc(Cl)cc3)c3ccc(C(=O)N(C)C)cc23)ccn1` [Compound 6, 1-(4-chlorobenzyl)-3-(2-(2-methoxypyridin-4-ylamino)-2-oxoacetyl)-N,N,2-trimethyl-1H-indole-5-carboxamide] it is 100 to 1000 nM. The figure for `COc1cc(NC(=O)C(=O)c2c(C)n(Cc3ccc(Cl)cc3)c3ccc(N(C)C(=O)OC(C)(C)C)cc23)ccn1` [Compound 7, Tert-butyl(1-(4-chlorobenzyl)-3-(2-((2-methoxypyridin-4-yl)amino)-2-oxoacetyl)-2-methyl-1H-indol-5-yl)(methyl)carbamate] is 100 to 1000 nM; for `COc1cc(NC(=O)C(=O)c2c(C)n(Cc3ccc(Cl)cc3)c3ccc(CO)cc23)ccn1` [Compound 8, 2-(1-(4-chlorobenzyl)-5-(hydroxymethyl)-2-methyl-1H-indol-3-yl)-N-(2-methoxypyridin-4-yl)-2-oxoacetamide] it is under 100 nM. `CNc1ccc2c(c1)c(C(=O)C(=O)Nc1ccnc(OC)c1)c(C)n2Cc1ccc(Cl)cc1` [Compound 9, 2-(1-(4-chlorobenzyl)-2-methyl-5-(methylamino)-1H-indol-3-yl)-N-(2-methoxypyridin-4-yl)-2-oxoacetamide]: the IC50 is under 100 nM. In the case of `COc1cc(NC(=O)C(=O)c2c(C)n(Cc3ccc(Cl)cc3)c3ccc(COC(C)=O)cc23)ccn1` [Compound 10, (1-(4-chlorobenzyl)-3-(2-(2-methoxypyridin-4-ylamino)-2-oxoacetyl)-2-methyl-1H-indol-5-yl)methyl acetate], the IC50 was under 100 nM. The figure for `COCc1ccc2c(c1)c(C(=O)C(=O)Nc1ccnc(OC)c1)c(C)n2Cc1ccc(Cl)cc1` [Compound 11, 2-(1-(4-chlorobenzyl)-5-(methoxymethyl)-2-methyl-1H-indol-3-yl)-N-(2-methoxypyridin-4-yl)-2-oxoacetamide] is under 100 nM; for `COc1ccc2c(c1)c(C(=O)C(=O)Nc1ccnc(OC)c1)c(C)n2Cc1cnc(Cl)cn1` [Compound 12, 2-(1-((5-chloropyrazin-2-yl)methyl)-5-methoxy-2-methyl-1H-indol-3-yl)-N-(2-methoxypyridin-4-yl)-2-oxoacetamide] it is under 100 nM. As to `COc1cc(NC(=O)C(=O)c2c(C)n(Cc3ncc(Cl)cc3Cl)c3cc(F)c(OC)cc23)ccn1` [Compound 13, 2-(1-((3,5-dichloropyridin-2-yl)methyl)-6-fluoro-5-methoxy-2-methyl-1H-indol-3-yl)-N-(2-methoxypyridin-4-yl)-2-oxoacetamide], the IC50 was under 100 nM. With `COc1cc(NC(=O)C(=O)c2c(C)n(Cc3ccc(F)cc3F)c3cc(F)c(OC)cc23)ccn1` [Compound 14, 2-(1-(2,4-difluorobenzyl)-6-fluoro-5-methoxy-2-methyl-1H-indol-3-yl)-N-(2-methoxypyridin-4-yl)-2-oxoacetamide], the IC50 was under 100 nM. As for `COc1cc(NC(=O)C(=O)c2c(C)n(Cc3ccc(Cl)cc3)c3ccc(C#N)cc23)ccn1` [Compound 15, 2-(1-(4-chlorobenzyl)-5-cyano-2-methyl-1H-indol-3-yl)-N-(2-methoxypyridin-4-yl)-2-oxoacetamide], the IC50 was under 100 nM. To `COc1ccc2c(c1)c(C(=O)C(=O)Nc1ccnc(OC)c1)c(C)n2Cc1ccncc1` [Compound 16, 2-(5-methoxy-2-methyl-1-(pyridin-4-ylmethyl)-1H-indol-3-yl)-N-(2-methoxypyridin-4-yl)-2-oxoacetamide] belongs 100 to 1000 nM; to `COc1cc(NC(=O)C(=O)c2c(C)n(Cc3ccc(Cl)cc3)c3ccc(N(C)C)cc23)ccn1` [Compound 17, 2-(1-(4-chlorobenzyl)-5-(dimethylamino)-2-methyl-1H-indol-3-yl)-N-(2-methoxypyridin-4-yl)-2-oxoacetamide], under 100 nM; to `COc1cc(NC(=O)C(=O)c2c(C)n(Cc3ccc(Cl)cc3)c3ccc(Br)cc23)ccn1` [Compound 18, 2-(5-bromo-1-(4-chlorobenzyl)-2-methyl-1H-indol-3-yl)-N-(2-methoxypyridin-4-yl)-2-oxoacetamide], under 100 nM. For `COc1cc(NC(=O)C(=O)c2c(C)n(Cc3ccc(Cl)cc3)c3ccc([N+](=O)[O-])cc23)ccn1` [Compound 19, 2-(1-(4-chlorobenzyl)-2-methyl-5-nitro-1H-indol-3-yl)-N-(2-methoxypyridin-4-yl)-2-oxoacetamide], the IC50 was under 100 nM.

As to `COc1cc(NC(=O)C(=O)c2c(C)n(Cc3ccc(Cl)cc3)c3ccc(N)cc23)ccn1` [Compound 20, 2-(5-amino-1-(4-chlorobenzyl)-2-methyl-1H-indol-3-yl)-N-(2-methoxypyridin-4-yl)-2-oxoacetamide], the IC50 is under 100 nM. For `COc1cc(NC(=O)C(=O)c2c(C)n(Cc3ccc(Cl)cc3)c3ccc(C(F)(F)F)cc23)ccn1` [Compound 21, 2-(1-(4-chlorobenzyl)-2-methyl-5-(trifluoromethyl)-1H-indol-3-yl)-N-(2-methoxypyridin-4-yl)-2-oxoacetamide], the IC50 is under 100 nM. Regarding `COc1cc(NC(=O)C(=O)c2c(C)n(Cc3ccc(Cl)cc3)c3ccc(NC(C)=O)cc23)ccn1` [Compound 22, 2-(5-acetamido-1-(4-chlorobenzyl)-2-methyl-1H-indol-3-yl)-N-(2-methoxypyridin-4-yl)-2-oxoacetamide], the IC50 fell in the range of 100 to 1000 nM.

For the compound `COc1cc(NC(=O)C(=O)c2c(C)n(Cc3ccc(Cl)cc3)c3ccc(OC(F)(F)F)cc23)ccn1` [Compound 23, 2-(1-(4-chlorobenzyl)-2-methyl-5-(trifluoromethoxy)-1H-indol-3-yl)-N-(2-methoxypyridin-4-yl)-2-oxoacetamide], the IC50 was under 100 nM.
